Experimental data taken from patent publication US8835397B2, “Macrocyclic lactone tablet formulation” (Bayer New Zealand Ltd., priority 2006, dated 2014).

Experiment: Abamectin blood plasma levels after raw active (no excipients) in gelatine capsule, sheep (Example 2)
Assay type: in vivo
Settings: oral gelatine capsule, raw active without excipients, 0.2 mg/kg
Description: Given the results in Example 1, a further trial was completed to determine the influence of the formulation on the degree of absorption of abamectin. This was completed by ascertaining baseline levels of abamectin drug bioavailability when animals are dosed with raw active (no excipients).
Five sheep weighing 59.0 kg to 63.5 kg (mean=61.2 kg) were all dosed with one abamectin treatment, which contained a dose sufficient for a 60 kg animal at the standard dose rate of 0.2 mg/kg for abamectin. The abamectin dose was contained within a gelatine capsule.
Prior to administration of the invention or Reference formulation, all animals were dosed to their individual liveweight with SCANDA™ (Batch 52888, expiry April 2006) at least 14 days prior to each treatment session, and tested free of strongylid nematodes (via faecal egg count) prior to the commencement of each treatment session.
Gelatine capsules containing an abamectin drug (one capsule per sheep) were used. All animals were dosed orally with the assistance of a “pill popper”, which was followed immediately by approx 60 ml of tap water. The capsules were dark green in colour, to prevent the light sensitive abamectin from being prematurely exposed to light.
All animals were blood sampled seven times. […]

abamectin
Abamectin blood plasma peak level: just above the detection threshold
